Patent US7566712B2, “Biaryl piperazinyl-pyridine analogues” (Neurogen Corporation, priority 2003, dated 2009)

Biological target: T1, human capsaicin receptor (Homo sapiens, UniProt Q8NER1)
T1 construct: pBK-CMV expression construct encoding the full length human capsaicin receptor; expressed in transfected cells
Assay: Calcium mobilization assay, determination of antagonist activity (Example 6)
Format: cell-based
Conditions: Table II
Outline: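 HEK293 clonal lines stably expressing full-length human capsaicin receptor, loaded with Fluo-3 AM in KRH buffer pH 7.4, 1–2 h at 37 °C. Compounds (1–5 μM final) preincubated 0.5–6 h at room temperature, then capsaicin at its EC50 added. FLIPR/Fluoroskan calcium signal; IC50 as 50% decrease of capsaicin response.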

[1] = IC50 determined as described in Example 6
[2] = determined as described in Example 6 (calcium mobilization, antagonist activity)

T1 sequence (Q8NER1 whole entry): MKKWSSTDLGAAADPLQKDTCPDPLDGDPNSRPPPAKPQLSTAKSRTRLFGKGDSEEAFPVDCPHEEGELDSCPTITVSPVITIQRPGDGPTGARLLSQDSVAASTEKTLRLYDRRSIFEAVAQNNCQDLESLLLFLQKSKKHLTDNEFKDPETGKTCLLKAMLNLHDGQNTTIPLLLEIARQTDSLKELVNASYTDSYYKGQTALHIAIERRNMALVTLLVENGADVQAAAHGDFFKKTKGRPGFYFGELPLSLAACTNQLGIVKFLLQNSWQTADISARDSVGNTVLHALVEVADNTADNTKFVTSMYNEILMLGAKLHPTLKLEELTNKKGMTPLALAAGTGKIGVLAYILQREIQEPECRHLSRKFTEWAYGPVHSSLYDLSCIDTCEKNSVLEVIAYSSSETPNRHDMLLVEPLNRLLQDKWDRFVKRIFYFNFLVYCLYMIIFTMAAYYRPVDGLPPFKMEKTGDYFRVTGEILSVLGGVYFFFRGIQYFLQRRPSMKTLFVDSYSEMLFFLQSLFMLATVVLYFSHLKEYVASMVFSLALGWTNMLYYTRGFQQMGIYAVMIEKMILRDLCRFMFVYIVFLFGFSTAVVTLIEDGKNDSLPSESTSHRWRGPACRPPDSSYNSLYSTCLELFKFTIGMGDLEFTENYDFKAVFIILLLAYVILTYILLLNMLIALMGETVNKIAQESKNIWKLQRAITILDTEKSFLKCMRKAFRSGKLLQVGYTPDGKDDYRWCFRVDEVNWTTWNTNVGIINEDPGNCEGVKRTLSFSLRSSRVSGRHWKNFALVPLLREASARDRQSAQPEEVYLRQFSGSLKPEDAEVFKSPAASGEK

| SMILES | IC50 [1] [µM] | IC50 [2] [µM] |
| --- | --- | --- |
| Fc1ccc(-c2cc(N3CCN(c4ncccc4C(F)(F)F)CC3)nc(OCCN3CCCC3)n2)cc1Cl [Example 558, 4-(3-chloro-4-fluorophenyl)-2-(2-pyrrolidin-1-ylethoxy)-6-{4-[3-(trifluoromethyl)pyridin-2-yf]piperazin-1-yl}pyrimidine] | ≤ 1 |  |
| CN1CCCC(Oc2nc(-c3ccc(F)c(Cl)c3)cc(N3CCN(c4ncccc4C(F)(F)F)CC3)n2)C1 (stereo not shown) [Example 559, 4-(3-chloro-4-fluorophenyl)-2-[(1-methylpiperidin-3-yl)oxy]-6-{4-[3-(trifluoromethyl)pyridin-2-yl]piperazin-1-yl}pyrimidine] | ≤ 1 |  |
| Fc1ccc(-c2cc(N3CCN(c4ncccc4C(F)(F)F)CC3)nc(OCC3CCNC3)n2)cc1Cl (stereo not shown) [Example 560, 4-(3-chloro-4-fluorophenyl)-2-(pyrrolidin-3-ylmethoxy)-6-{4-(3-(trifluoromethyl)pyridin-2-yl]piperazin-1-yl}pyrimidine] | ≤ 1 |  |
| Fc1ccc(-c2cc(N3CCN(c4ncccc4C(F)(F)F)CC3)nc(OC3CCNCC3)n2)cc1Cl [Example 561, 4-(3-chloro-4-fluorophenyl)-2-(piperidin-4-yloxy)-6-{4-[3-(trifluoromethyl)pyridin-2-yl]piperazin-1-yl}pyrimidine] | ≤ 1 |  |
| CN(C)C1CCN(c2nc(-c3ccc(F)c(Cl)c3)cc(N3CCN(c4ncccc4C(F)(F)F)CC3)n2)C1 (stereo not shown) [Example 562, 1-(4-(3-chloro-4-fluorophenyl)-6-{4-[3-(trifluoromethyl)pyridin-2-yl]piperazin-1-yl}pyrimidin-2-yl)-N,N-dimethylpyrrolidin-3-amine] | ≤ 1 |  |
| CCN(CC)C1CCN(c2nc(-c3ccc(F)c(Cl)c3)cc(N3CCN(c4ncccc4C(F)(F)F)CC3)n2)CC1 [Example 563, 1-(4-(3-chloro-4-fluorophenyl)-6-{4-[3-(trifluoromethyl)pyridin-2-yl]piperazin-1-yl}pyrimidin-2-yl)-N,N-diethylpiperidin-4-amine] | ≤ 1 |  |
| CN1CCC(N(C)c2nc(-c3ccc(F)c(Cl)c3)cc(N3CCN(c4ncccc4C(F)(F)F)CC3)n2)C1 (stereo not shown) [Example 564, 4-(3-chloro-4-fluorophenyl)-N-methyl-N-(1-methylpyrrolidin-3-yl)-6-{4-[3-(trifluoromethyl)pyridin-2-yl]piperazin-1-yl}pyrimidin-2-amine] | ≤ 1 |  |
| CN1CCC(N(C)c2nc(-c3ccc(F)c(Cl)c3)cc(N3CCN(c4ncccc4C(F)(F)F)CC3)n2)CC1 [Example 565] | ≤ 1 |  |
| CCN(CC)CCN(C)c1nc(-c2ccc(F)c(Cl)c2)cc(N2CCN(c3ncccc3C(F)(F)F)CC2)n1 [Example 566, N-1-(4-(3-chloro-4-fluorophenyl)-6-{4-[3-(trifluoromethyl)pyridin-2-yl]piperazin-1-yl}pyrimidin-2-yl)-N-2-,N-2-diethyl-N-1-methylethane-1,2-diamine] | ≤ 1 |  |
| NC(=O)[C@@H]1CCCN1c1nc(-c2ccc(F)c(Cl)c2)cc(N2CCN(c3ncccc3C(F)(F)F)CC2)n1 [Example 567, 1-(4-(3-chloro-4-fluorophenyl)-6-{4-[3-(trifluoromethyl)pyridin-2-yl]piperazin-1-yl}pyrimidin-2-yl)-L-prolinamide] | ≤ 1 |  |
| NC1CCN(c2nc(-c3ccc(F)c(Cl)c3)cc(N3CCN(c4ncccc4C(F)(F)F)CC3)n2)C1 (stereo not shown) [Example 568, 1-(4-(3-chloro-4-fluorophenyl)-6-{4-[3-(trifluoromethyl)pyridin-2-yl]piperazin-1-yl}pyrimidin-2-yl)pyrrolidin-3-amine] | ≤ 1 |  |
| NC1CCN(c2nc(-c3ccc(F)c(Cl)c3)cc(N3CCN(c4ncccc4C(F)(F)F)CC3)n2)CC1 [Example 569, 1-(4-(3-chloro-4-fluorophenyl)-6-{4-[3-(trifluoromethyl)pyridin-2-yl]piperazin-1-yl}pyrimidin-2-yl)piperidin-4-amine] | ≤ 1 |  |
| CC(=O)NC1CCN(c2nc(-c3ccc(F)c(Cl)c3)cc(N3CCN(c4ncccc4C(F)(F)F)CC3)n2)C1 (stereo not shown) [Example 570, N-[1-(4-(3-chloro-4-fluorophenyl)-6-{4-[3-(trifluoromethyl)pyridin-2-yl]piperazin-1-yl}pyrimidin-2-yl)pyrrolidin-3-yl]acetamide] | ≤ 1 |  |
| CC(=O)NC1CCN(c2nc(-c3ccc(F)c(Cl)c3)cc(N3CCN(c4ncccc4C(F)(F)F)CC3)n2)CC1 [Example 571, N-[1-(4-(3-chloro-4-fluorophenyl)-6-{4-[3-(trifluoromethyl)pyridin-2-yl]piperazin-1-yl}pyrimidin-2-yl)piperidin-4-yl]acetamide] | ≤ 1 |  |
| CS(=O)(=O)N1CCN(c2nc(-c3ccc(F)c(Cl)c3)cc(N3CCN(c4ncccc4C(F)(F)F)CC3)n2)CC1 [Example 572, 4-(3-chloro-4-fluorophenyl)-2-[4-(methylsulfonyl)piperazin-1-yl]-6-{4-[3-(trifluoromethyl)pyridin-2-yl]piperazin-1-yl)pyrimidine] |  | ≤ 1 |
| CCN(CC)c1nc(-c2ccc(F)c(Cl)c2)cc(N2CCN(c3ncccc3C(F)(F)F)CC2)n1 [Example 573, 4-(3-chloro-4-fluorophenyl)-N,N-diethyl-6-{4-[3-(trifluoromethyl)pyridin-2-yl]piperazin-1-yl}pyrimidin-2-amine] |  | ≤ 1 |

| SMILES | IC50 [1] [µM] | IC50 [2] [µM] |
| --- | --- | --- |
| FC(F)(F)c1cccnc1N1CCN(c2cc(-c3ccccc3)nc(N3CCOCC3)n2)CC1 [Example 574, 4-(4-phenyl-6-{4-[3-(trifluoromethyl)pyridin-2-yl]piperazin-1-yl}pyrimidin-2-yl)morpholine] |  | ≤ 1 |
| Cc1cc(-c2cc(N3CCN(c4ncccc4C(F)(F)F)CC3)nc(N3CCOCC3)n2)ccn1 [Example 575, 4-(4-(2-methylpyridin-4-yl)-6-{4-[3-(trifluoromethyl)pyridin-2-yl]piperazin-1-yl}pyrimidin-2-yl)morpholine] |  | ≤ 1 |
| Cc1cc(-c2cc(N3CCN(c4ncccc4C(F)(F)F)CC3)nc(N3CCOCC3)n2)ccc1F [Example 576, 4-(4-(4-fluoro-3-methylphenyl)-6-{4-[3-(trifluoromethyl)pyridin-2-yl]piperazin-1-yl}pyrimidin-2-yl)morpholifle] |  | ≤ 1 |
| CCOc1cc(-c2cc(N3CCN(c4ncccc4C(F)(F)F)CC3)nc(N3CCOCC3)n2)ccn1 [Example 577, 4-(4-(2-ethoxypyridin-4-yl)-6-{4-[3-(trifluoromethyl)pyridin-2-yl]piperazin-1-yl}pyrimidin-2-yl)morpholine] |  | ≤ 1 |
| CN(c1nc(-c2ccc(F)c(Cl)c2)cc(N2CCN(c3ncccc3C(F)(F)F)CC2)n1)C1CCCCC1 [Example 578, 4-(3-chloro-4-fluorophenyl)-N-cyclohexyl-N-methyt-6-{4-[3-(trifluoromethyl)pyridin-2-yl]piperazin-1-yl}pyrimidin-2-amine] |  | ≤ 1 |
| CC(C)Nc1nc(-c2ccc(F)c(Cl)c2)cc(N2CCN(c3ncccc3C(F)(F)F)CC2)n1 [Example 580, 4-(3-chloro-4-fluorophenyl)-N-isopropyl-6-{4-[3-(trifluoromethyl)pyridin-2-yl]piperazin-1-yl}pyrimidin-2-amine] |  | ≤ 1 |
| O=C1NCC2(CCN(c3nc(-c4ccc(F)c(Cl)c4)cc(N4CCN(c5ncccc5C(F)(F)F)CC4)n3)CC2)O1 [Example 581, 8-(4-(3-chloro-4-fluorophenyl)-6-{4-[3-(trifluoromethyl)pyridin-2-yl]piperazin-1-yl}pyrimidin-2-yl)-1-oxa-3,8-diazaspiro[4.5]decan-2-one] |  | ≤ 1 |
| Fc1ccc(-c2cc(N3CCN(c4ncccc4C(F)(F)F)CC3)nc(OCc3ccccc3C(F)(F)F)n2)cc1F [Example 582, 4-(3,4-difluorophenyl)-2-{[2-(trifluoromethyl)benzyl]oxy}-6-{4-[3-(trifluoromethyl)pyridin-2-yl]piperazin-1-yl}pyrimidine] |  | ≤ 1 |
| N#Cc1cccnc1N1CCN(c2cc(-c3ccc(F)c(Cl)c3)nc(N3CCOCC3)n2)CC1 [Example 583, 2-{4-[6-(3-chloro-4-fluorophenyl)-2-morpholin-4-ylpyrimidin-4-yl]piperazin-1-yl}nicotinonitrile] |  | ≤ 1 |
| Nc1nc(-c2ccc(F)c(Cl)c2)cc(N2CCN(c3ncccc3C(F)(F)F)CC2)n1 [Example 584, 4-(3-chloro-4-fluorophenyl)-6-{4-[3-(trifluoromethyl)pyridin-2-yl]piperazin-1-yl}pyrimidin-2-amine] |  | ≤ 1 |
| Cc1cccnc1N1CCN(c2cc(-c3ccc(F)c(Cl)c3)nc(N3CCOCC3)n2)CC1 [Example 585, 4-{4-(3-chloro-4-fluorophenyl)-6-[4-(3-methylpyridin-2-yl)piperazin-1-yl]pyrimidin-2-yl}morpholine] |  | ≤ 1 |
| COc1cccnc1N1CCN(c2cc(-c3ccc(F)c(Cl)c3)nc(N3CCOCC3)n2)CC1 [Example 586, 4-{4-(3-chloro-4-fluorophenyl)-6-[4-(3-methoxypyridin-2-yl)piperazan-1-yl]pyrimidin-2-yl}morpholine] |  | ≤ 1 |
| Nc1cccnc1N1CCN(c2cc(-c3ccc(F)c(Cl)c3)nc(N3CCOCC3)n2)CC1 [Example 587, 2-{4-[6-(3-chloro-4-fluorophenyl)-2-morpholin-4-ylpyrimidin-4-yl]piperazin-1-yl}pyridin-3-amine] |  | ≤ 1 |
| CS(=O)(=O)Nc1cccnc1N1CCN(c2cc(-c3ccc(F)c(Cl)c3)nc(N3CCOCC3)n2)CC1 [Example 588, N-(2-{4-[6-(3-chloro-4-fluorophenyl)-2-morpholin-4-ylpyrimidin-4-yl]piperazin-1-yl}pyridin-3-yl)methanesulfonamide] |  | ≤ 1 |
| Nc1cccc(-c2cc(N3CCN(c4ncccc4C(F)(F)F)CC3)nc(N3CCOCC3)n2)c1 [Example 589, 3-(2-morpholin-4-yl-6-{4-[3-(trifluoromethyl)pyridin-2-yl]piperazin-1-yl}pyrimidin-4-yl)phenylamine] |  | ≤ 1 |
